In the supplement of paper PMC10307832:

Tests used:
Test in all cases: relative viability (nuclei count vs DMSO), 5 days (fraction); higher = more cells survive
ChaGo-K-1 = test system: ChaGo-K-1
How it was run: (§1)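 Each reported value is a median over duplicate plates. It expresses relative viability: treated-well nuclei count divided by vehicle-well nuclei count. Lung cancer cell lines in 1536-well plates were dosed by pin tool a day after seeding, alone with one drug or with a fixed anchor-drug dose plus five library-drug doses (not always all listed) in √10 steps, and nuclei were counted after 5 days.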

EKVX = test system: EKVX
How it was run: as §1

EPLC-272H = test system: EPLC-272H
How it was run: as §1

H3255 = test system: H3255
How it was run: as §1

HCC-827 = test system: HCC-827
How it was run: as §1

HOP-62 = test system: HOP-62
How it was run: as §1

LCLC-97TM1 = test system: LCLC-97TM1
How it was run: as §1

LU99A = test system: LU99A
How it was run: as §1

LXF-289 = test system: LXF-289
How it was run: as §1

NCI-H1355 = test system: NCI-H1355
How it was run: as §1

NCI-H1650 = test system: NCI-H1650
How it was run: as §1

NCI-H1993 = test system: NCI-H1993
How it was run: as §1

NCI-H2228 = test system: NCI-H2228
How it was run: as §1

NCI-H2405 = test system: NCI-H2405
How it was run: as §1

NCI-H3122 = test system: NCI-H3122
How it was run: as §1

NCI-H441 = test system: NCI-H441
How it was run: as §1

PC-3 [JPC-3] = test system: PC-3 [JPC-3]
How it was run: as §1

SK-LU-1 = test system: SK-LU-1
How it was run: as §1

SW 1573 = test system: SW 1573
How it was run: as §1

UMC-11 = test system: UMC-11
How it was run: as §1

Structure (SMILES): Nc1cccc2c1CN(C1CCC(=O)NC1=O)C2=O (stereo not drawn) [Lenalidomide] + CC(C)C[C@H](NC(=O)[C@H](Cc1ccccc1)NC(=O)c1cnccn1)B(O)O [Bortezomib] (partner 0.002 µM)
- relative viability (ChaGo-K-1; first compound 0.253 µM): 1.07
- relative viability (ChaGo-K-1; first compound 2.53 µM): 1
- relative viability (ChaGo-K-1; first compound 8 µM): 1.29
- relative viability (EKVX; first compound 0.253 µM): 1.04
- relative viability (EKVX; first compound 0.8 µM): 0.805
- relative viability (EKVX; first compound 2.53 µM): 1.17
- relative viability (EKVX; first compound 8 µM): 0.856
- relative viability (EPLC-272H; first compound 0.253 µM): 0.876
- relative viability (EPLC-272H; first compound 2.53 µM): 1.03
- relative viability (EPLC-272H; first compound 8 µM): 0.999
- relative viability (H3255; first compound 0.253 µM): 0.886
- relative viability (H3255; first compound 0.8 µM): 0.612
- relative viability (H3255; first compound 2.53 µM): 0.874
- relative viability (H3255; first compound 8 µM): 0.828
- relative viability (HCC-827; first compound 0.253 µM): 1.09
- relative viability (HCC-827; first compound 0.8 µM): 0.798
- relative viability (HCC-827; first compound 2.53 µM): 1.09
- relative viability (HCC-827; first compound 8 µM): 1.04
- relative viability (HOP-62; first compound 0.253 µM): 0.701
- relative viability (HOP-62; first compound 0.8 µM): 0.417
- relative viability (HOP-62; first compound 2.53 µM): 1.06
- relative viability (HOP-62; first compound 8 µM): 0.722
- relative viability (LCLC-97TM1; first compound 0.253 µM): 0.673
- relative viability (LCLC-97TM1; first compound 0.8 µM): 0.514
- relative viability (LCLC-97TM1; first compound 2.53 µM): 0.705
- relative viability (LCLC-97TM1; first compound 8 µM): 0.416
- relative viability (LU99A; first compound 0.253 µM): 1.06
- relative viability (LU99A; first compound 0.8 µM): 1.11
- relative viability (LU99A; first compound 2.53 µM): 1.05
- relative viability (LU99A; first compound 8 µM): 0.73
- relative viability (LXF-289; first compound 0.253 µM): 0.958
- relative viability (LXF-289; first compound 0.8 µM): 0.98
- relative viability (LXF-289; first compound 2.53 µM): 1.07
- relative viability (LXF-289; first compound 8 µM): 1.08
- relative viability (NCI-H1355; first compound 0.253 µM): 1.23
- relative viability (NCI-H1355; first compound 0.8 µM): 0.426
- relative viability (NCI-H1355; first compound 2.53 µM): 1.29
- relative viability (NCI-H1355; first compound 8 µM): 1.03
- relative viability (NCI-H1650; first compound 0.253 µM): 0.197
- relative viability (NCI-H1650; first compound 0.8 µM): 0.189
- relative viability (NCI-H1650; first compound 2.53 µM): 0.213
- relative viability (NCI-H1650; first compound 8 µM): 0.198
- relative viability (NCI-H1993; first compound 0.253 µM): 1.07
- relative viability (NCI-H1993; first compound 0.8 µM): 0.951
- relative viability (NCI-H1993; first compound 2.53 µM): 1.12
- relative viability (NCI-H1993; first compound 8 µM): 0.675
- relative viability (NCI-H2228; first compound 0.253 µM): 1
- relative viability (NCI-H2228; first compound 0.8 µM): 0.986
- relative viability (NCI-H2228; first compound 2.53 µM): 1.12
- relative viability (NCI-H2228; first compound 8 µM): 0.942
- relative viability (NCI-H2405; first compound 0.253 µM): 0.912
- relative viability (NCI-H2405; first compound 0.8 µM): 0.418
- relative viability (NCI-H2405; first compound 2.53 µM): 0.876
- relative viability (NCI-H2405; first compound 8 µM): 0.828
- relative viability (NCI-H3122; first compound 0.253 µM): 1.04
- relative viability (NCI-H3122; first compound 0.8 µM): 1.05
- relative viability (NCI-H3122; first compound 2.53 µM): 0.98
- relative viability (NCI-H3122; first compound 8 µM): 1.13
- relative viability (NCI-H441; first compound 0.253 µM): 0.347
- relative viability (NCI-H441; first compound 0.8 µM): 0.383
- relative viability (NCI-H441; first compound 2.53 µM): 0.529
- relative viability (NCI-H441; first compound 8 µM): 0.485
- relative viability (PC-3 [JPC-3]; first compound 0.253 µM): 0.872
- relative viability (PC-3 [JPC-3]; first compound 0.8 µM): 0.535
- relative viability (PC-3 [JPC-3]; first compound 2.53 µM): 0.906
- relative viability (PC-3 [JPC-3]; first compound 8 µM): 0.99
- relative viability (SK-LU-1; first compound 0.253 µM): 1.31
- relative viability (SK-LU-1; first compound 0.8 µM): 1.38
- relative viability (SK-LU-1; first compound 2.53 µM): 1.25
- relative viability (SK-LU-1; first compound 8 µM): 0.862
- relative viability (SW 1573; first compound 0.253 µM): 1.14
- relative viability (SW 1573; first compound 0.8 µM): 1.05
- relative viability (SW 1573; first compound 2.53 µM): 1.23
- relative viability (SW 1573; first compound 8 µM): 1.03
- relative viability (UMC-11; first compound 0.253 µM): 0.526
- relative viability (UMC-11; first compound 0.8 µM): 0.332
- relative viability (UMC-11; first compound 2.53 µM): 0.856
- relative viability (UMC-11; first compound 8 µM): 0.635
